The source of these data is US8377473B2, “Slow release magnesium composition and uses thereof” (Magceutics, Inc., priority 2009, dated 2013).

Data set [1] can be described thus: Magnesium content in the cerebrospinal fluid. The settings on record: 24 days of treatment, approximately 50 mg/kg/day elemental magnesium via drinking water. An excerpt:
(§1) Statistical analysis: All data were approximated with a normal distribution. […] One-way analysis of variance was used to analyze the cerebrospinal fluid data. GraphPad prism was used for data analysis (version 5.00, GraphPad software Inc.).

Data set [2] relates to rats. Nature of the data set: Margin of safety: incidence of diarrhea with magnesium preparations in drinking water. To be noted: elemental magnesium via drinking water for 4 days, non-linear regression. As for the experimental part: Animals: Adult male Sprague-Dawley rats were obtained from Wei Tong Li Hua Beijing, China. Rats were individually-housed with free access to standard food and water under a 12:12 h reversed light-dark cycle, with light onset at 8:00 p.m. […] All experimental procedures were approved by the Tsinghua University Committees on Animal Care.
(Magceutics Inc., USA), Magnesium chloride and glycinate (Modern Eastern Fine Chemical, China), magnesium gluconate and citrate (Sigma-Aldrich, Germany). Lactose was obtained from Biobasic Inc (Beijing, China).
The magnesium dose dissolved in the daily intake volume of water was determined based on intake of ˜30 ml/day/rat. Animals were supplied with the magnesium supplemented drinking water for 4 days, after which time the number of animals that developed diarrhea was monitored and calculated as a percentage of the total number of animals in the respective group.
as §1

For data set [3], the system named is rats. To be noted: young and aged rats, cited from earlier work.
For data set [4] the following is noted: cited from earlier work.
The subject of a further data set is diabetic patients. The settings on record: nearly 1 g of magnesium daily for 1 month; cited from earlier work.

By bioavailability is commonly meant dose-corrected exposure relative to a reference, in per cent.

As for `[Cl-].[Cl-].[Mg+2]` [magnesium chloride], the “magnesium concentration in cerebrospinal fluid ([Mg2+]CSF)” value in data set [1] is recorded as “relatively limited effect”. Further, the “TD50 (toxic dose required to induce diarrhea in 50% of animals)” value in the data set on rats [2] was determined as 90.0 mg/kg/day.
For the compound `[O]=[Mg]` [magnesium oxide], the cognitive function result in the data set on rats [3] (food containing 2% magnesium oxide for 8 days) is reported as “some sign of improvement”. Besides, the side-effect result with rats [3] (food containing 2% magnesium oxide) was “diarrhea and weight loss”. Moreover, in data set [4] (Firoz and Graber 2001), the magnesium absorption rate entry was “about 4%”. In data set [4] (Ranade and Somberg 2001), the bioavailability is on record as 4%. In the data set with diabetic patients, the “increase of serum magnesium level” value is reported as “about 10%” and the metabolic control entry was “only minor improvement”.
As to magnesium gluconate, in the data set with rats [2], the “TD50 (toxic dose required to induce diarrhea in 50% of animals)” value stood at 99.7 mg/kg/day.
